Experimental data: PubChem BioAssay AID248 (DTP/NCI, 2004)
Several values for one entry are separate records, joined by “and”; a condition that tells them apart may be missing. Equal entries are not always repeated. Inconclusive results and toxic doses are left out. Cut-off read from the data, not from the text of the source: active = T/C of 150% or more; inactive = T/C below 125%.

Test system: L1210 leukemia ip in BDF1 mice, survival T/C
Assay: NCI In Vivo Anticancer Drug Screen. Data for tumor model L1210 Leukemia (intraperitoneal) in B6D2F1 (BDF1) mice
Conditions: endpoint: mean survival time, higher = longer survival
Outline: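 Value reflects the ratio of survival in compound-treated mice to survival in vehicle-treated controls, with both groups carrying the same transplanted tumor.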

[1] = dose: 25.0 mg/kg/injection, schedule: Q01DX009 (ip), vehicle: Klucel (hydroxypropylcellulose) (HPC)
[2] = dose: 50.0 mg/kg/injection, schedule: Q01DX009 (ip), vehicle: Klucel (hydroxypropylcellulose) (HPC)
[3] = dose: 100.0 mg/kg/injection, schedule: Q01DX001 (ip), vehicle: saline
[4] = dose: 100.0 mg/kg/injection, schedule: Q01DX009 (ip), vehicle: Klucel (hydroxypropylcellulose) (HPC)
[5] = dose: 200.0 mg/kg/injection, schedule: Q01DX001 (ip), vehicle: saline
[6] = dose: 400.0 mg/kg/injection, schedule: Q01DX001 (ip), vehicle: saline
[7] = dose: 100.0 mg/kg/injection, schedule: Q01DX009 (ip), vehicle: saline
[8] = dose: 200.0 mg/kg/injection, schedule: Q01DX009 (ip), vehicle: saline
[9] = dose: 400.0 mg/kg/injection, schedule: Q01DX009 (ip), vehicle: saline
[10] = dose: 100.0 mg/kg/injection, schedule: Q01DX009 (ip), vehicle: saline with Tween-80
[11] = dose: 100.0 mg/kg/injection, schedule: Q04DX003 (ip), vehicle: saline with Tween-80
[12] = dose: 200.0 mg/kg/injection, schedule: Q01DX009 (ip), vehicle: saline with Tween-80
[13] = dose: 200.0 mg/kg/injection, schedule: Q04DX003 (ip), vehicle: saline with Tween-80
[14] = dose: 400.0 mg/kg/injection, schedule: Q04DX003 (ip), vehicle: saline with Tween-80
[15] = dose: 100.0 mg/kg/injection, schedule: Q04DX003 (ip), vehicle: saline
[16] = dose: 200.0 mg/kg/injection, schedule: Q04DX003 (ip), vehicle: saline
[17] = dose: 400.0 mg/kg/injection, schedule: Q04DX003 (ip), vehicle: saline
[18] = dose: 100.0 mg/kg/injection, schedule: Q01DX001 (ip), vehicle: Klucel (hydroxypropylcellulose) (HPC)
[19] = dose: 100.0 mg/kg/injection, schedule: Q04DX003 (ip), vehicle: Klucel (hydroxypropylcellulose) (HPC)
[20] = dose: 200.0 mg/kg/injection, schedule: Q01DX001 (ip), vehicle: Klucel (hydroxypropylcellulose) (HPC)
[21] = dose: 200.0 mg/kg/injection, schedule: Q01DX009 (ip), vehicle: Klucel (hydroxypropylcellulose) (HPC)
[22] = dose: 200.0 mg/kg/injection, schedule: Q04DX003 (ip), vehicle: Klucel (hydroxypropylcellulose) (HPC)
[23] = dose: 400.0 mg/kg/injection, schedule: Q01DX001 (ip), vehicle: Klucel (hydroxypropylcellulose) (HPC)
[24] = dose: 400.0 mg/kg/injection, schedule: Q01DX009 (ip), vehicle: Klucel (hydroxypropylcellulose) (HPC)
[25] = dose: 400.0 mg/kg/injection, schedule: Q04DX003 (ip), vehicle: Klucel (hydroxypropylcellulose) (HPC)
[26] = dose: 100.0 mg/kg/injection, schedule: Q01DX001 (ip), vehicle: carboxymethylcellulose (CMC)
[27] = dose: 200.0 mg/kg/injection, schedule: Q01DX001 (ip), vehicle: carboxymethylcellulose (CMC)
[28] = dose: 400.0 mg/kg/injection, schedule: Q01DX001 (ip), vehicle: carboxymethylcellulose (CMC)
[29] = dose: 50.0 mg/kg/injection, schedule: Q01DX009 (ip), vehicle: saline with Tween-80

Measured: T/C

CO[C@H]1/C=C/O[C@@]2(C)Oc3c(C)c(O)c4c(O)c(c(/C=N/N5CCN(C)CC5)c(O)c4c3C2=O)NC(=O)/C(C)=C\C=C\[C@H](C)[C@H](O)[C@@H](C)[C@@H](O)[C@@H](C)[C@H](OC(C)=O)[C@@H]1C
inactive: [1] 96 % of control | dose: 50.0 mg/kg/injection, schedule: Q01DX001 (ip), vehicle: water 97 % of control | [2] 94 % of control | [3] 97 % of control | dose: 100.0 mg/kg/injection, schedule: Q01DX001 (ip), vehicle: water 103 % of control | [4] 94 % of control | [5] 100 % of control | dose: 200.0 mg/kg/injection, schedule: Q01DX001 (ip), vehicle: water 100 % of control | [6] 97 % of control | dose: 400.0 mg/kg/injection, schedule: Q01DX001 (ip), vehicle: water 108 % of control | dose: 1200.0 mg/kg/injection, schedule: Q01DX001 (ip), vehicle: acetone 102 % of control

CCOC(=O)C1CCC(C(=O)OCC)N1C (stereo not drawn)
inactive: [3] 97 % of control | [7] 96 % of control | [5] 88 % of control | [8] 98 % of control | [6] 95 % of control | [9] 100 % of control

O=C(O)CCS
inactive: dose: 50.0 mg/kg/injection, schedule: Q01DX001 (ip), vehicle: saline 98 % of control

COC(OC)c1nc(N)[nH]c(=O)c1Cc1ccc(C)c2ccccc12
inactive: [10] 96 % of control | [11] 103 % of control | [12] 90 % of control | [13] 97 % of control | dose: 400.0 mg/kg/injection, schedule: Q01DX009 (ip), vehicle: saline with Tween-80 90 % of control | [14] 92 % of control

Nc1ncnc2c1cnn2CCCl
inactive: [3] 101 % of control | [15] 106 % of control | dose: 132.0 mg/kg/injection, schedule: Q04DX003 (ip), vehicle: saline 104 % of control and 123 % of control | [5] 101 % of control | [16] 102 % of control and 124 % of control | dose: 300.0 mg/kg/injection, schedule: Q04DX003 (ip), vehicle: saline 104 % of control | [6] 102 % of control | [17] 101 % of control

CCCCOP(=O)(OCCCC)Oc1c(Cl)c(Cl)c(Cl)c(Cl)c1Cl
inactive: dose: 100.0 mg/kg/injection, schedule: Q04DX002 (sc), vehicle: olive oil, sesame oil, peanut oil 107 % of control | dose: 200.0 mg/kg/injection, schedule: Q04DX002 (sc), vehicle: olive oil, sesame oil, peanut oil 100 % of control | dose: 400.0 mg/kg/injection, schedule: Q04DX002 (sc), vehicle: olive oil, sesame oil, peanut oil 104 % of control

CSc1ccc(OC(=O)Nc2cccc(F)c2)cc1
inactive: [18] 88 % of control | [4] 105 % of control and 109 % of control | dose: 100.0 mg/kg/injection, schedule: Q04DX002 (ip), vehicle: Klucel (hydroxypropylcellulose) (HPC) 101 % of control and 91 % of control | [19] 104 % of control and 124 % of control | [20] 101 % of control | [21] 100 % of control and 101 % of control | dose: 200.0 mg/kg/injection, schedule: Q04DX002 (ip), vehicle: Klucel (hydroxypropylcellulose) (HPC) 94 % of control and 98 % of control | [22] 107 % of control and 120 % of control | [23] 104 % of control | [24] 109 % of control and 90 % of control | dose: 400.0 mg/kg/injection, schedule: Q04DX002 (ip), vehicle: Klucel (hydroxypropylcellulose) (HPC) 93 % of control and 94 % of control | [25] 104 % of control

COc1cc(N=O)ccc1O
inactive: [2] 106 % of control | [4] 103 % of control | [21] 100 % of control

ClCCC1CNCCN1 (stereo not drawn)
inactive: [7] 87 % of control | [15] 96 % of control | [8] 89 % of control | [16] 96 % of control | [9] 89 % of control | [17] 103 % of control

CC(=O)Nc1nc(C)c(CCCNS(=O)(=O)c2ccc(N)cc2)c(=O)[nH]1
inactive: dose: 25.0 mg/kg/injection, schedule: Q01DX001 (ip), vehicle: Klucel (hydroxypropylcellulose) (HPC) 102 % of control | dose: 50.0 mg/kg/injection, schedule: Q01DX001 (ip), vehicle: Klucel (hydroxypropylcellulose) (HPC) 92 % of control | [18] 95 % of control

CC(=O)OCCC/C(=C\c1ccc(N(C)C)cc1)[N+](=O)[O-]
inactive: [26] 91 % of control | [27] 91 % of control | [28] 98 % of control

COc1ccc2c(c1)-c1c(ccc(OC)c1OC(=O)C(=O)c1ccccc1)CC(Cl)N(C)CC2.[O]=[Cr](=[O])([OH])[OH] (stereo not drawn)
inactive: [15] 89 % of control | [16] 89 % of control | [17] 90 % of control

Cn1c(=S)[nH]c2cc(Cl)c(Cl)cc21
inactive: [15] 100 % of control | [16] 105 % of control | [17] 97 % of control

Cc1ccc(S(=O)(=O)C=C(c2ccccc2)c2ccccc2)cc1
inactive: [18] 98 % of control | [19] 100 % of control | [20] 96 % of control | [22] 95 % of control | [23] 104 % of control | [25] 95 % of control

C=C(C)C1CCC2(C(=O)OC)CCC3(C)C(CCC4C5(C)CCC(OC6CCCCO6)C(C)(C)C5CCC43C)C12 (stereo not drawn)
inactive: dose: 25.0 mg/kg/injection, schedule: Q04DX002 (ip), vehicle: saline with Tween-80 86 % of control | dose: 100.0 mg/kg/injection, schedule: Q04DX002 (ip), vehicle: saline with Tween-80 86 % of control

CN(C)c1ccc(/C=N/O)cc1
inactive: dose: 100.0 mg/kg/injection, schedule: Q04DX002 (ip), vehicle: saline 103 % of control | dose: 200.0 mg/kg/injection, schedule: Q04DX002 (ip), vehicle: saline 95 % of control | dose: 400.0 mg/kg/injection, schedule: Q04DX002 (ip), vehicle: saline 95 % of control

NC(=O)Cc1cccc(=O)[nH]1
inactive: [18] 100 % of control | [20] 97 % of control | [23] 95 % of control

CCC(C)(CC)OC(N)=O
inactive: dose: 12.5 mg/kg/injection, schedule: Q01DX009 (ip), vehicle: saline with Tween-80 100 % of control | dose: 25.0 mg/kg/injection, schedule: Q01DX009 (ip), vehicle: saline with Tween-80 102 % of control | dose: 25.0 mg/kg/injection, schedule: Q04DX003 (ip), vehicle: saline 100 % of control | [29] 94 % of control | dose: 50.0 mg/kg/injection, schedule: Q04DX003 (ip), vehicle: saline 100 % of control | [10] 105 % of control | [15] 102 % of control | [12] 93 % of control | [16] 96 % of control

CNC(=O)NCC1OC(n2cnc3c(N)ncnc32)C(O)C1O (stereo not drawn)
inactive: [18] 98 % of control | [20] 98 % of control | [23] 95 % of control

Nc1nc[nH]c1C(=O)NO
inactive: [3] 100 % of control | [5] 103 % of control | [6] 92 % of control

COc1cc2c(cc1O)C(=O)CCC(C(=O)O)=C2
inactive: [29] 93 % of control | [10] 107 % of control | [12] 96 % of control

O=[N+]([O-])c1ccc(N2CCCC2)c([N+](=O)[O-])c1
inactive: [4] 101 % of control | [19] 95 % of control | [21] 93 % of control | [22] 92 % of control | [24] 97 % of control | [25] 99 % of control

N#CCCCOc1cccc([N+](=O)[O-])c1
inactive: [10] 93 % of control | [12] 102 % of control

COc1ccccc1C(=O)N/N=C/c1ccccc1Cl
inactive: [1] 96 % of control | [2] 96 % of control | [4] 104 % of control and 105 % of control | [19] 108 % of control | [21] 108 % of control | [22] 111 % of control | [24] 103 % of control | [25] 108 % of control

O=C1C(Cl)=C(Nc2ccccc2Cl)C(=O)C(Cl)=C1Nc1ccccc1Cl
inactive: dose: 50.0 mg/kg/injection, schedule: Q01DX001 (ip), vehicle: carboxymethylcellulose (CMC) 101 % of control | [26] 101 % of control | [11] 95 % of control | [27] 90 % of control | [13] 98 % of control | [28] 95 % of control | [14] 98 % of control
